PMC9250534, “Synthesis and direct assay of large macrocycle diversities by combinatorial late-stage modification at picomole scale” (Nature Communications, 2022)
Numbered stars: 1 amine (or outer) side, 2 acyl side, 3 side chain; on linkers, the order of the positions; unused ones are H or OH. Bridge positions count the residues as written; N and C are the ends. Square brackets hold non-standard residues; d marks the D form. Peptide text beside a SMILES is read from it. * marks the point of attachment. ξ: configuration not given here. ξPro(4ξ-NHCOC6H4-4-Cl) = O=C(NC1CNC(C(=O)O)C1)c1ccc(Cl)cc1; 2Thenoyl(5-Cl) = O=C(c1ccc(Cl)s1)*; Benzoyl(4-Cl) = O=C(c1ccc(Cl)cc1)*; Cysteamide = C(CS[*:3])N[*:1]; X1 = O=C(/C=C/c1ccccc1)*; Api = NC1(C(=O)O)CCNCC1; Dap = NC[CH](N)C(=O)O; X2 = O=C(C=Cc1ccccc1)*; Mpa = O=C(O)CCS

Target: MDM2 (Homo sapiens, UniProt Q00987)
Sequence (Q00987 whole entry): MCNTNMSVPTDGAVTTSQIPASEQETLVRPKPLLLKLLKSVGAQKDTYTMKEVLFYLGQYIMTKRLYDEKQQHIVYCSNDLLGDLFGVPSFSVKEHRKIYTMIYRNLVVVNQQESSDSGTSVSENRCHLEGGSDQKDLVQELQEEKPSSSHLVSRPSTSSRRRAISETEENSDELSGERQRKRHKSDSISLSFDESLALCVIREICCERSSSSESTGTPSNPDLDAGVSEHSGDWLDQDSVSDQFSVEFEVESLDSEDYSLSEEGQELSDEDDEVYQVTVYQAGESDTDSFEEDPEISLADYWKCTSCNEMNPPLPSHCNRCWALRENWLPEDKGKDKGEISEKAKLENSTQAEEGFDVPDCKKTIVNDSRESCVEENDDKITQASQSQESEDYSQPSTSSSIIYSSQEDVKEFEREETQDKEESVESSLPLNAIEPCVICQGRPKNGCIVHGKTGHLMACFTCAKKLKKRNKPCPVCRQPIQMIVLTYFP
Assay: MDM2 binding screen: displacement of fluorescent p53 peptide probe FP53 (fluorescence polarization)
Conditions: crude macrocycle reactions; for fraction fluorescent probe displaced, Screen: initial screen
Protocol: We screened Library 2 in 384-microwell plates by dispensing the target protein MDM2 and reporter peptide into the wells containing the macrocycle reactions.
The products were screened for displacement of a p53-based fluorescent peptide from human MDM2. Final macrocycle concentrations were 10 µM. For each macrocycle, the MDM2 binding was measured once.
One fluorescence anisotropy reading was taken with a Tecan Infinite F200 Pro fluorescence plate reader (excitation at 485 nm, emission at 535 nm) at 25 °C. Data was collected and exported using the Tecan Infinite M200 Pro instrument software. The data was analyzed by Excel (version 2016).

Row | fraction fluorescent probe displaced, Screen (Acid 91) | fraction fluorescent probe displaced, Replicate (Acid 91) | fraction fluorescent probe displaced, Screen (Acid 14) | fraction fluorescent probe displaced, Replicate (Acid 14) | SMILES | other results
1 | – | – | – | – | O=C1NC2(CCN(C(=O)c3ccc(Cl)cc3)CC2)C(=O)NCCSSCCC(=O)N2CCC[C@H]2C(=O)N[C@H]1Cc1ccccc1 [X B1 F D6 Acid 25] ([Mpa]PF[Api](Benzoyl(4-Cl))-Cysteamide; disulfide 1-C) | fraction fluorescent probe displaced, Screen (Acid 25): 0.09; fraction fluorescent probe displaced, Replicate (Acid 25): 0.15
2 | 0.00268 | 0.04 | – | – | O=C1NC2(CCN(C(=O)C=Cc3ccccc3)CC2)C(=O)NCCSSCCC(=O)N2CCCC2C(=O)NC1Cc1ccccc1 (centres unmarked) [X B1 F D6 Acid 91] ([Mpa]PF[Api](X2)-Cysteamide; disulfide 1-C; configuration not given here) | –
3 | – | – | 0.053 | 0.12 | O=C1NC(Cc2ccccc2)C(=O)N2CCN(C(=O)c3ccc(Cl)s3)CC2C(=O)NCCSSCCC(=O)N2CCCC12 (centres unmarked) [X B1 F D7 Acid 14] | –
4 | – | – | – | – | O=C1NC(Cc2ccccc2)C(=O)N2CCN(C(=O)c3ccc(Cl)cc3)CC2C(=O)NCCSSCCC(=O)N2CCCC12 (centres unmarked) [X B1 F D7 Acid 25] | fraction fluorescent probe displaced, Screen (Acid 25): 0.0244; fraction fluorescent probe displaced, Replicate (Acid 25): 0.12
5 | – | – | 0.23 | 0.15 | O=C(NCC1NC(=O)C(Cc2c[nH]c3ccccc23)NC(=O)C2CCCN2C(=O)CCSSCCNC1=O)c1ccc(Cl)s1 (centres unmarked) [X B1 W D3 Acid 14] ([Mpa]PW[Dap](2Thenoyl(5-Cl))-Cysteamide; disulfide 1-C; configuration not given here) | –
6 | – | – | – | – | O=C(NC[C@@H]1NC(=O)[C@H](Cc2c[nH]c3ccccc23)NC(=O)[C@@H]2CCCN2C(=O)CCSSCCNC1=O)c1ccc(Cl)cc1 [X B1 W D3 Acid 25] ([Mpa]PW[Dap](Benzoyl(4-Cl))-Cysteamide; disulfide 1-C) | fraction fluorescent probe displaced, Screen (Acid 25): 0.25; fraction fluorescent probe displaced, Replicate (Acid 25): 0.25
7 | 0.08 | 0.04 | – | – | O=C(/C=C/c1ccccc1)NC[C@@H]1NC(=O)[C@H](Cc2c[nH]c3ccccc23)NC(=O)[C@@H]2CCCN2C(=O)CCSSCCNC1=O [X B1 W D3 Acid 91] ([Mpa]PW[Dap](X1)-Cysteamide; disulfide 1-C) | –
8 | – | – | – | – | O=C(NC1CC2C(=O)NCCSSCCC(=O)N3CCCC3C(=O)NC(Cc3c[nH]c4ccccc34)C(=O)N2C1)c1ccc(Cl)cc1 (centres unmarked) [X B1 W D5 Acid 25] ([Mpa]PW[ξPro(4ξ-NHCOC6H4-4-Cl)]-Cysteamide; disulfide 1-C; configuration not given here) | fraction fluorescent probe displaced, Screen (Acid 25): 0.15; fraction fluorescent probe displaced, Replicate (Acid 25): 0.20
9 | – | – | 0.20 | 0.12 | O=C1NC2(CCN(C(=O)c3ccc(Cl)s3)CC2)C(=O)NCCSSCCC(=O)N2CCC[C@H]2C(=O)N[C@H]1Cc1c[nH]c2ccccc12 [X B1 W D6 Acid 14] ([Mpa]PW[Api](2Thenoyl(5-Cl))-Cysteamide; disulfide 1-C) | –
10 | 0.14 | 0.07 | – | – | O=C1NC2(CCN(C(=O)/C=C/c3ccccc3)CC2)C(=O)NCCSSCCC(=O)N2CCC[C@H]2C(=O)N[C@H]1Cc1c[nH]c2ccccc12 [X B1 W D6 Acid 91] ([Mpa]PW[Api](X1)-Cysteamide; disulfide 1-C) | –
11 | – | – | 0.08 | 0.15 | O=C1NC(Cc2c[nH]c3ccccc23)C(=O)N2CCN(C(=O)c3ccc(Cl)s3)CC2C(=O)NCCSSCCC(=O)N2CCCC12 (centres unmarked) [X B1 W D7 Acid 14] | –
12 | – | – | -0.00483 | 0.0465 | O=C1CCSSCCNC(=O)[C@H](Cc2ccccc2)NC(=O)[C@H](CNC(=O)c2ccc(Cl)s2)NC(=O)CCN1 [X B2 D3 F Acid 14] | –
13 | – | – | – | – | O=C1CCSSCCNC(=O)[C@H](Cc2ccccc2)NC(=O)[C@H](CNC(=O)c2ccc(Cl)cc2)NC(=O)CCN1 [X B2 D3 F Acid 25] | fraction fluorescent probe displaced, Screen (Acid 25): 0.0244; fraction fluorescent probe displaced, Replicate (Acid 25): -0.0552
14 | 0.0563 | -0.00827 | – | – | O=C(/C=C/c1ccccc1)NC[C@@H]1NC(=O)CCNC(=O)CCSSCCNC(=O)[C@H](Cc2ccccc2)NC1=O [X B2 D3 F Acid 91] | –
15 | – | – | – | – | O=C1CCSSCCNC(=O)[C@H](Cc2c[nH]c3ccccc23)NC(=O)[C@H](CNC(=O)c2ccc(Cl)cc2)NC(=O)CCN1 [X B2 D3 W Acid 25] | fraction fluorescent probe displaced, Screen (Acid 25): 0.19; fraction fluorescent probe displaced, Replicate (Acid 25): 0.22
16 | 0.27 | 0.14 | – | – | O=C(/C=C/c1ccccc1)NC[C@@H]1NC(=O)CCNC(=O)CCSSCCNC(=O)[C@H](Cc2c[nH]c3ccccc23)NC1=O [X B2 D3 W Acid 91] | –
17 | – | – | 0.16 | 0.05 | O=C1CCSSCCNC(=O)[C@H](Cc2ccccc2)NC(=O)[C@@H]2C[C@H](NC(=O)c3ccc(Cl)s3)CN2C(=O)CCN1 [X B2 D5 F Acid 14] | –
18 | – | – | – | – | O=C1CCSSCCNC(=O)C(Cc2ccccc2)NC(=O)C2CC(NC(=O)c3ccc(Cl)cc3)CN2C(=O)CCN1 (centres unmarked) [X B2 D5 F Acid 25] | fraction fluorescent probe displaced, Screen (Acid 25): 0.16; fraction fluorescent probe displaced, Replicate (Acid 25): 0.05
19 | -0.17 | -0.08 | – | – | O=C(C=Cc1ccccc1)NC1CC2C(=O)NC(Cc3ccccc3)C(=O)NCCSSCCC(=O)NCCC(=O)N2C1 (centres unmarked) [X B2 D5 F Acid 91] | –

Row | fraction fluorescent probe displaced, Screen (Acid 91) | fraction fluorescent probe displaced, Replicate (Acid 91) | fraction fluorescent probe displaced, Screen (Acid 14) | fraction fluorescent probe displaced, Replicate (Acid 14) | SMILES | other results
20 | – | – | 0.11 | 0.17 | O=C1CCSSCCNC(=O)C(Cc2c[nH]c3ccccc23)NC(=O)C2CC(NC(=O)c3ccc(Cl)s3)CN2C(=O)CCN1 (centres unmarked) [X B2 D5 W Acid 14] | –
21 | 0.03 | 0.0168 | – | – | O=C(C=Cc1ccccc1)NC1CC2C(=O)NC(Cc3c[nH]c4ccccc34)C(=O)NCCSSCCC(=O)NCCC(=O)N2C1 (centres unmarked) [X B2 D5 W Acid 91] | –
22 | – | – | 0.13 | 0.0229 | O=C1CCSSCCNC(=O)[C@H](Cc2ccccc2)NC(=O)C2(CCN(C(=O)c3ccc(Cl)s3)CC2)NC(=O)CCN1 [X B2 D6 F Acid 14] | –
23 | 0.16 | 0.07 | – | – | O=C1CCSSCCNC(=O)[C@H](Cc2c[nH]c3ccccc23)NC(=O)C2(CCN(C(=O)/C=C/c3ccccc3)CC2)NC(=O)CCN1 [X B2 D6 W Acid 91] | –
24 | – | – | 0.17 | 0.07 | O=C1CCSSCCNC(=O)C(Cc2c[nH]c3ccccc23)NC(=O)C2CN(C(=O)c3ccc(Cl)s3)CCN2C(=O)CCN1 (centres unmarked) [X B2 D7 W Acid 14] | –
25 | 0.14 | 0.07 | – | – | O=C1CCSSCCNC(=O)C(Cc2c[nH]c3ccccc23)NC(=O)C2CN(C(=O)C=Cc3ccccc3)CCN2C(=O)CCN1 (centres unmarked) [X B2 D7 W Acid 91] | –
26 | – | – | 0.0241 | 0.12 | O=C1CCSSCCNC(=O)[C@H](CNC(=O)c2ccc(Cl)s2)NC(=O)[C@H](Cc2ccccc2)NC(=O)CCN1 [X B2 F D3 Acid 14] | –
27 | – | – | – | – | O=C1CCSSCCNC(=O)[C@H](CNC(=O)c2ccc(Cl)cc2)NC(=O)[C@H](Cc2ccccc2)NC(=O)CCN1 [X B2 F D3 Acid 25] | fraction fluorescent probe displaced, Screen (Acid 25): 0.0569; fraction fluorescent probe displaced, Replicate (Acid 25): -0.03
28 | 0.03 | -0.11 | – | – | O=C(/C=C/c1ccccc1)NC[C@@H]1NC(=O)[C@H](Cc2ccccc2)NC(=O)CCNC(=O)CCSSCCNC1=O [X B2 F D3 Acid 91] | –
29 | – | – | 0.14 | 0.07 | O=C1CCSSCCNC(=O)C2CC(NC(=O)c3ccc(Cl)s3)CN2C(=O)C(Cc2ccccc2)NC(=O)CCN1 (centres unmarked) [X B2 F D5 Acid 14] | –
30 | 0.00268 | -0.08 | – | – | O=C(C=Cc1ccccc1)NC1CC2C(=O)NCCSSCCC(=O)NCCC(=O)NC(Cc3ccccc3)C(=O)N2C1 (centres unmarked) [X B2 F D5 Acid 91] | –
31 | – | – | 0.08 | 0.12 | O=C1CCSSCCNC(=O)C2(CCN(C(=O)c3ccc(Cl)s3)CC2)NC(=O)[C@H](Cc2ccccc2)NC(=O)CCN1 [X B2 F D6 Acid 14] | –
32 | – | – | – | – | O=C1CCSSCCNC(=O)C2(CCN(C(=O)c3ccc(Cl)cc3)CC2)NC(=O)[C@H](Cc2ccccc2)NC(=O)CCN1 [X B2 F D6 Acid 25] | fraction fluorescent probe displaced, Screen (Acid 25): -0.17; fraction fluorescent probe displaced, Replicate (Acid 25): 0.0465
33 | 0.0563 | 0.12 | – | – | O=C1CCSSCCNC(=O)C2(CCN(C(=O)/C=C/c3ccccc3)CC2)NC(=O)[C@H](Cc2ccccc2)NC(=O)CCN1 [X B2 F D6 Acid 91] | –
34 | 0.03 | -0.00827 | – | – | O=C1CCSSCCNC(=O)C2CN(C(=O)C=Cc3ccccc3)CCN2C(=O)C(Cc2ccccc2)NC(=O)CCN1 (centres unmarked) [X B2 F D7 Acid 91] | –
35 | – | – | – | – | O=C1CCSSCCNC(=O)[C@H](CNC(=O)c2ccc(Cl)cc2)NC(=O)[C@H](Cc2c[nH]c3ccccc23)NC(=O)CCN1 [X B2 W D3 Acid 25] | fraction fluorescent probe displaced, Screen (Acid 25): 0.19; fraction fluorescent probe displaced, Replicate (Acid 25): 0.22
36 | 0.14 | 0.07 | – | – | O=C(/C=C/c1ccccc1)NC[C@@H]1NC(=O)[C@H](Cc2c[nH]c3ccccc23)NC(=O)CCNC(=O)CCSSCCNC1=O [X B2 W D3 Acid 91] | –
37 | – | – | 0.11 | 0.15 | O=C1CCSSCCNC(=O)[C@@H]2C[C@H](NC(=O)c3ccc(Cl)s3)CN2C(=O)[C@H](Cc2c[nH]c3ccccc23)NC(=O)CCN1 [X B2 W D5 Acid 14] | –
